14 compounds from patent publication US5244907A, “Carbocyclic carboxylic acid amides and esters of azabicyclic compounds as gastric prokinetic, antiemetic, anxiolytic and antiarrhythmic agents” (A. H. Robins Company, Incorporated, priority 1992, dated 1993) can be followed below.

Experiment [1] deals with gastric emptying of test meal. Nature of the experiment: Gastric emptying of a test meal in fasted rats. Format: in vivo. The note with it: Rattus norvegicus, 1 h; for change in vivo at 9 mg/kg: 9 mg/kg IP (printed 09); for change in vivo at 10 mg/kg: 10 mg/kg IP. On the procedure: B. Effect of Invention Compounds on Gastric Emptying of a Test Meal in Fasted Rats
The procedure used to test compounds of the present invention for gastric motility enhancing activity is that of Droppleman et al., J. Pharmacol. Methods, 4,227(1980).
Each animal is dosed intraperitoneally (9 or 10 mg/kg) with a test compound or control. After 30 minutes each animal is given 3 mL of a methylcellulose-based test meal formulation. Sixty minutes after administration of the test meal, each animal is sacrificed by cervical dislocation, and the stomach is removed and weighed. The stomach is cut open, rinsed and dried, and reweighed. This difference between the full and empty weights (amount of meal remaining in stomach) is subtracted from the weight of the original test meal to determine the meal amount emptied from the stomach during the test period.
^1 % change in gastric emptying of test meal in rats (dose, mg/kg IP)

Experiment [2] deals with von Bezold-Jarisch reflex evoked by 5-HT (serotonin). Description: Antagonism of the von Bezold-Jarisch reflex evoked by 5-HT in anaesthetized rats. Conditions: Rattus norvegicus; 0.0316 mg/kg IV in anesthetized rats; read-out: Antiserotonin: von Bezold-Jarisch reflex % change in serotonin-induced bradycardia. Format: in vivo. On the procedure: F. Antagonism of the von Bezold-Jarisch Reflex
The compounds are evaluated for antagonism of the von Bezold-Jarisch reflex evoked by 5-HT (serotonin) in anaesthetized rats according to the method described in European Patent Application 200-444 (Beecham Group).
Male rats (250-350 g) are anaesthetized with urethane (1.25 g/kg intraperitoneally), and blood pressure and heart rate are recorded as described by Fozard J. R. et al., J. Cardiovasc. Pharmacol. 2, 229-245 (1980). A submaximal dose of 5-HT (usually […]) is given repeatedly by the intravenous route and changes in heart rate quantified. Compounds are given intravenously and the inhibition of the 5-HT evoked response is measured. In addition, the concentration required to reduce the 5-HT evoked response to 50% of the control response (ED50) can be determined.
^3 Von BezoldJarisch reflex % change in serotonininduced bradycardia
at 0.0316 mg/kg IV in anesthesized rats.

For a further experiment, the system named is cisplatin-induced emesis. Description: Cisplatin-induced emesis in dogs. Format: in vivo. Conditions: Canis lupus familiaris; 1 mg/kg IV; cisplatin 3.0 mg/kg IV; 5 hours; read-out: Antiemetic: % change in emetic episodes in dogs induced by cisplatin. On the procedure:
A. Effect of Invention Compounds on Cisplatin-induced Emesis in Dogs
The procedure used to test compounds of the present invention for antiemetic properties is a modification of the method of Gylys et al., Res. Commun. Chem. Pathol. Pharm., 23, 61(1979).
Adult, mongrel unfasted dogs of both sexes are randomly assigned into treatment groups, with each treatment group consisting of four dogs. On the dosing day all dogs are given cisplatin, 3.0 mg/kg, intravenously. Sixty minutes later, the dogs in the control treatment group are given deionized water, 0.1 mL/kg intravenously and dogs receiving test compounds are given the test compound in solution (1 mg/kg, IV). All doses are administered as a solution by means of a syringe and needle, and each dog's emetic episodes are recorded for 5 hours after the administration of cisplatin.
^2 % change in emetic episodes in dogs at 1 mg/kg IV induced by […]

For experiment [3], the system named is exploratory light/dark behavior. Nature of the experiment: Anxiolytic test, exploratory light/dark (mice). Format: in vivo. Conditions: 10 mg/kg IP, significant increase as compared with the controls (30%). On the procedure: Exploratory Light/Dark (mice)
This method has been described by Young and Johnson (1988) and is a modification of the procedure described by Costall and Naylor (1988). A two compartment light-dark activity monitoring device (Digiscan Model RXYZCM16, Omnitech Electronics Inc., Columbus, Ohio) is used. A 90W light source located 30 cm above the box provides light to the lit portion of the apparatus. Behavioral testing is conducted in a sound-attenuated, darkened room illuminated with red light (25W red bulb) only.
Each animal (mouse) receives a dose or doses of either the test, reference, or control article. The animal is placed at the center of the illuminated area and the behavioral activity tallied over a 5 minute period by use of the Digiscan analyzer. Behavioral variables recorded included: the time spent in the lit and dark areas, the number of rearings in the lit and dark areas, the number of locomotor activity counts in the lit and dark areas, the number of transitions between the lit and dark and lit areas, the latency to make the first transition from the lit area to the dark area, rearing time in the lit and dark areas, locomotor time in the lit and dark areas, and resting time in the lit and dark areas. Appropriate statistical analyses for each measure are performed. […]

The test system of a further experiment is canine Purkinje fibers. Description: Cellular electrophysiologic effects in canine Purkinje fibers in vitro. Format: cell-based, dog (canine). Conditions: Canis lupus familiaris, 20 min, 10^-4 M, after 20 min exposure, read-out: increase in action potential duration at 90% repolarization (APD90). On the procedure: G. Measurement of Cellular Electrophysiologic Effects in Canine Purkinje Fibers in Vitro
Dogs (12-18 kg) were anesthetized with sodium pentobarbital (30 mg/kg IV). The heart of each dog was rapidly removed through a right lateral thoracotomy and placed in a chilled, oxygenated Tyrode's solution. Purkinje fibers from the right and left ventricles were excised and mounted in a Lucite chamber. The tissue was superfused at a rate of 10-15 mL/min with Tyrode's solution. The temperature of the superfused Tyrode's was maintained at 37° C. and gassed with 95% oxygen-5% carbon dioxide mixture.
The Purkinje fibers were stimulated (paced at cycle length of 400 to 1000 msec) with a silver bipolar wire electrode placed on the surface of the tissue. Transmembrane action potentials were recorded with a glass capillary microelectrodes filled with 3M KCl. […] The measurements derived from the action potential were Vmax (upstroke velocity), APD50 (action potential duration at 50% repolarization), and APD90 (action potential duration at 90% repolarization) as previously described (Bigger and Mandel, 1970; Wu and Hoffman, 1987). […] Measurements of the action potential parameters were recorded after 20 min of test drug exposure. […] Changes in the action potential measurements produced by the test compound were analyzed for statistical significance using a paired-t test. […]

As to `O=C(OCC12CCCN(CCC1)C2)c1c[nH]c2ccccc12` [Example 14, 1H-Indole-3-carboxylic acid 1-azabicyclo[3.3.1]non-5-ylmethyl ester], the change in vivo at 9 mg/kg in experiment [1] was 10%. The change in vivo at 0.0316 mg/kg in experiment [2] was -0.3%.
Take `COc1cc(N)c(Cl)cc1C(=O)OCC12CCCN(CCC1)C2` [Example 13, 4-Amino-5-chloro-2-methoxybenzoic acid 1-azabicyclo[3.3.1]non-5-ylmethyl ester]: in the experiment with cisplatin-induced emesis, the change in vivo at 1 mg/kg is -50%. Besides, in experiment [1], the change in vivo at 9 mg/kg worked out at 41%. In experiment [2], the change in vivo at 0.0316 mg/kg was -23%.
`COc1cc(N)c(Cl)cc1C(=O)NCC12CCCN(CCC1)C2` [Example 4, 4-Amino-N-(1-azabicyclo[3.3.1]non-5-ylmethyl)-5-chloro-2-methoxybenzamide]: in the experiment with cisplatin-induced emesis, the change in vivo at 1 mg/kg was -62%. Besides, the change in vivo at 10 mg/kg in experiment [1] is 31%. The change in vivo at 0.0316 mg/kg in experiment [2] was -32%.
With `COCCOc1cc(N)c(Cl)cc1C(=O)NCC12CCCN(CCC1)C2` [Example 6, 4-Amino-N-(1-azabicyclo[3.3.1]non-5-ylmethyl)-5-chloro-2-(2-methoxyethoxy)benzamide], in experiment [2], the change in vivo at 0.0316 mg/kg is -30%.
Consider `Cn1cc(C(=O)NCC23CCCN(CCC2)C3)c2ccccc21` [Example 8], for which, in the experiment with cisplatin-induced emesis, the change in vivo at 1 mg/kg is -49%.
In the case of `CNc1cc(OC)c(C(=O)NCC23CCCN(CC2)C3)cc1Cl` (stereo not drawn) [Example 2], in the experiment with cisplatin-induced emesis, the change in vivo at 1 mg/kg was -63%. Besides, in experiment [1], the change in vivo at 9 mg/kg was 62%.
With `COc1cc(N)c(Cl)cc1C(=O)OCC12CCCN(CC1)C2` (stereo not drawn) [Example 10, 4-Amino-5-chloro-2-methoxybenzoic acid 1-azabicyclo[3.2.1]oct-5-ylmethyl ester], the change in vivo at 1 mg/kg in the experiment with cisplatin-induced emesis was -82%. The change in vivo at 10 mg/kg in experiment [1] was 47%. For the same compound, in experiment [2], the change in vivo at 0.0316 mg/kg was -82%.
As to `O=C(OCC12CCCN(CC1)C2)c1c[nH]c2ccccc12` (stereo not drawn) [Example 11, 1H-Indole-3-carboxylic acid 1-azabicyclo[3.2.1]oct-5-ylmethyl ester], the change in vivo at 1 mg/kg in the experiment with cisplatin-induced emesis is -85%. The change in vivo at 0.0316 mg/kg in experiment [2] is -86%.
In the case of `COCCOc1cc(N)c(Cl)cc1C(=O)NCC12CCCN(CC1)C2` (stereo not drawn) [Example 3], the change in vivo at 1 mg/kg with cisplatin-induced emesis was -51%. Also, the change in vivo at 10 mg/kg in experiment [1] is 31%. Also, the change in vivo at 0.0316 mg/kg in experiment [2] is -74%.
Turning to `Cn1cc(C(=O)OCC23CCCN(CC2)C3)c2ccccc21` (stereo not drawn) [Example 12, 1-Methyl-1H-indole-3-carboxylic acid 1-azabicyclo[3.2.1]oct-5-ylmethyl ester], the change in vivo at 0.0316 mg/kg in experiment [2] is -81%. Moreover, in experiment [3], the “time spent in the lit area” value is reported as 58%.
On to `COc1cc(N)c(Cl)cc1C(=O)NCC12CCCN(CC1)C2` (stereo not drawn) [Example 1, 4-Amino-N-(1-azabicyclo[3.2.1]oct-5ylmethyl)-5-chloro-2-methoxybenzamide], for which the change in vivo at 1 mg/kg in the experiment with cisplatin-induced emesis is -76%. In experiment [1], the change in vivo at 10 mg/kg came out at 47%.
For `CS(=O)(=O)Nc1ccc(C(=O)NCC23CCCN(CCC2)C3)cc1` [Example 9, N-(1-Azabicyclo[3.3.1]non-5-ylmethyl)-4-[(methylsulfonyl)amino]benzamide], the activation at 100 µM in the experiment with canine Purkinje fibers was found to be 8.5%.
`Cn1nc(C(=O)OCC23CCCN(CC2)C3)c2ccccc21` (stereo not drawn) [Example 15, 1-Methyl-1H-indazole-3-carboxylic acid 1-azabicyclo[3.2.1]oct-5-ylmethyl ester]: the change in vivo at 1 mg/kg with cisplatin-induced emesis is -93%. For the same compound, the change in vivo at 10 mg/kg in experiment [1] was determined as 31%. Further, the change in vivo at 0.0316 mg/kg in experiment [2] was -72%.
For the compound `CNc1cc(OC)c(C(=O)NCC23CCCN(CCC2)C3)cc1Cl` [Example 5, N-(1-Azabicyclo[3.3.1]non-5-ylmethyl)-5-chloro-2-methoxy-4-(methylamino)benzamide], the change in vivo at 1 mg/kg in the experiment with cisplatin-induced emesis is -71%. Moreover, the change in vivo at 9 mg/kg in experiment [1] worked out at 58%.
